# Measured values from patent US12594268B2, “Methods of treating Fabry disease in patients having a mutation in the GLA gene” (Amicus Therapeutics, Inc., priority 2018, dated 2026).
# Numbering of substitutions follows the chain as printed.
# Experiments:
# Assay type in all cases: cell-based
# [1] = target: T1, α-Gal A mutant form Y216S (Homo sapiens, UniProt P06280, Y216S); experiment: α-Gal A activity in lysates of transfected HEK-293 cells, Y216S
# T1 construct: expressed in transfected cells; host or cells: HEK-293
# T1 sequence (P06280 32-429 Y216S): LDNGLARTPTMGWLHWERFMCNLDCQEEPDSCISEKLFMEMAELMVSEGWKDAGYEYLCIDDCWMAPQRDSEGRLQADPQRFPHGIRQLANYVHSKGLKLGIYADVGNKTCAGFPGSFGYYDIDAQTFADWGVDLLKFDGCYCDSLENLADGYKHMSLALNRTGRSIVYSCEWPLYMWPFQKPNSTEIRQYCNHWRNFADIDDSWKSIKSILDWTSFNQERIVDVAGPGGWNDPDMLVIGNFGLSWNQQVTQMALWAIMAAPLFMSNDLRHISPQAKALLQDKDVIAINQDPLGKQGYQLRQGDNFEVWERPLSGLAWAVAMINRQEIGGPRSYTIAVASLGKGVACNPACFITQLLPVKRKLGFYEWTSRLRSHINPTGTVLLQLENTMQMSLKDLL
# Experimental: (§1) Baseline and 10 μM migalastat α-Gal A activity: Differences in the α-Gal A activity between lysates incubated in the absence and presence of 10 μM migalastat were determined using a one-tailed, Mann Whitney U test; an increase at 10 μM migalastat with a p<0.05 was considered significant.
# (§2) 10 μM migalastat α-Gal A activity (% WT)=(α-Gal A activity in mutant transfected cell lysates incubated with 10 μM migalastat÷α-Gal A activity in wild-type transfected cell lysates without migalastat)*100.
# (§3) Absolute increase (% WT)=is the 10 μM migalastat α-Gal A activity (% WT) minus the baseline α-Gal A activity (% WT).
# (§4) Relative increase is the 10 μM migalastat α-Gal A activity in mutant transfected cell lysates÷baseline α-Gal A activity in mutant transfected cell lysates incubated without migalastat.
# [2] = target: T2, α-Gal A mutant form Y152D (Homo sapiens, UniProt P06280, Y152D); experiment: α-Gal A activity in lysates of transfected HEK-293 cells, Y152D
# T2 construct: expressed in transfected cells; host or cells: HEK-293
# T2 sequence (P06280 32-429 Y152D): T1 sequence (P06280 32-429 Y216S) with Y121D, S185Y
# Experimental: as §1, §2, §3, §4
# α-Gal A mutant form G35A = target: T3, α-Gal A mutant form G35A (Homo sapiens, UniProt P06280, G35A); experiment: α-Gal A activity in lysates of transfected HEK-293 cells, G35A
# T3 construct: expressed in transfected cells; host or cells: HEK-293
# T3 sequence (P06280 32-429 G35A): T1 sequence (P06280 32-429 Y216S) with G4A, S185Y
# Experimental: as §1, §2, §3, §4
# [3] = target: T4, α-Gal A mutant form Q250K (Homo sapiens, UniProt P06280, Q250K); experiment: α-Gal A activity in lysates of transfected HEK-293 cells, Q250K
# T4 construct: expressed in transfected cells; host or cells: HEK-293
# T4 sequence (P06280 32-429 Q250K): T1 sequence (P06280 32-429 Y216S) with S185Y, Q219K
# Experimental: as §1, §2, §3, §4
# [4] = target: T5, α-Gal A mutant form S238G (Homo sapiens, UniProt P06280, S238G); experiment: α-Gal A activity in lysates of transfected HEK-293 cells, S238G
# T5 construct: expressed in transfected cells; host or cells: HEK-293
# T5 sequence (P06280 32-429 S238G): T1 sequence (P06280 32-429 Y216S) with S185Y, S207G
# Experimental: as §1, §2, §3, §4
# [5] = 10 μM migalastat minus baseline
# [6] = 10 μM migalastat ÷ baseline activity
# [7] = HEK-293 lysates, 10 nM migalastat as printed, 5 days, mean ± SEM
# [8] = HEK-293 lysates, 10 μM migalastat, 5 days, mean ± SEM
structure (smiles),measurement,setting,value
"OC[C@H]1NC[C@H](O)[C@@H](O)[C@H]1O [migalastat, (2R,3S,4R,5S)-2-(hydroxymethyl) piperdine-3,4,5-triol]",Absolute increase (% WT),[1]; [5],32.7 % WT
same,Relative increase,[1]; [6],17.70
same,10 nM migalastat α-Gal A activity,[1]; [7],11238 ± 751 nmol/mg/h
same,10 μM migalastat α-Gal A activity (% WT),[1]; [8],34.7 ± 1.8 % WT
same,Absolute increase (% WT),[2]; [5],10.7 % WT
same,Relative increase,[2]; [6],2.75
same,10 μM migalastat α-Gal A activity,[2]; [8],6594 ± 294 nmol/mg/h
same,10 μM migalastat α-Gal A activity (% WT),[2]; [8],16.7 ± 1.1 % WT
same,Absolute increase (% WT),α-Gal A mutant form G35A; [5],31.0 % WT
same,Relative increase,α-Gal A mutant form G35A; [6],1.61
same,10 nM migalastat α-Gal A activity,α-Gal A mutant form G35A; [7],31694 ± 1949 nmol/mg/h
same,10 μM migalastat α-Gal A activity (% WT),α-Gal A mutant form G35A; [8],82.1 ±5.6 % WT
same,Absolute increase (% WT),[3]; [5],25.5 % WT
same,Relative increase,[3]; [6],2.58
same,10 nM migalastat α-Gal A activity,[3]; [7],11325 ± 1111 nmol/mg/h
same,10 μM migalastat α-Gal A activity (% WT),[3]; [8],41.6 ± 3.1 % WT
same,Absolute increase (% WT),[4]; [5],67.7 % WT
same,Relative increase,[4]; [6],4.26
same,10 μM migalastat α-Gal A activity,[4]; [8],25106 ± 1611 nmol/mg/h
same,10 μM migalastat α-Gal A activity (% WT),[4]; [8],86.4 ± 7.2 % WT
